Test results: paper doi:10.1101/2024.12.09.627564, “Cannabinoid inhibition of mechanosensitive K^+ channels” (bioRxiv, 2024)
Read-outs that look alike come from different tables or passages of the source.

Tests used:
TRPA1 = tested on: TRPA1; parameters: method as in PMID 30697147, PMID 31566564; conditions: activation; cited from earlier work
Homo sapiens TRAAK = target: T1, Homo sapiens TRAAK (Homo sapiens, UniProt Q9NYG8); experiment: Excised inside-out patch recording of TRAAK from Xenopus oocytes; type: biochemical; conditions: for inhibition at 1 µM: 1 μM CBD, read-out: percent inhibition
T1 construct: The transcribed messages encode H. sapiens TRAAK amino acids 1–393; expressed in transfected cells; host or cells: Xenopus laevis oocytes, cRNA injection
T1 sequence (Q9NYG8 1-393): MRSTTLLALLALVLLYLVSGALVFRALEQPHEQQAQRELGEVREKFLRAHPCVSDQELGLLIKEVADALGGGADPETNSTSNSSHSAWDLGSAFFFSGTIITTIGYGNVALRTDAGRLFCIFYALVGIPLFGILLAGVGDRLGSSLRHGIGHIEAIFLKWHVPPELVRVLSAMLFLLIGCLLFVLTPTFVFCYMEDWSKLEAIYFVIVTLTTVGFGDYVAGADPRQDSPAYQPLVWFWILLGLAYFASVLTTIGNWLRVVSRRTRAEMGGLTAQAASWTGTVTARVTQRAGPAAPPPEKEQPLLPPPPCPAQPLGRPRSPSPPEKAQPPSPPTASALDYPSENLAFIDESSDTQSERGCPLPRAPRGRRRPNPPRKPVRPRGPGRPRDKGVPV
Description: (§1) For patch clamp recording from Xenopus oocytes, genes encoding full-length Homo sapiens TRAAK (UniProt Q9NYG8–2), TREK-1 (UniProt O95069), and TREK-2 (UniProt P57789) were codon optimized for eukaryotic expression, synthesized (Genewiz), and cloned into a modified pGEMHE vector using Xho1 and EcoR1 restriction sites. The transcribed messages encode H. sapiens TRAAK amino acids 1–393, TREK-1 amino acids 1–426, or TREK-2 amino acids 1–538 with an additional three amino acids (SNS) at the C terminus. TRAAK mutants were introduced by polymerase chain reaction (PCR). Linearized DNA was transcribed in vitro using T7 polymerase. Complementary RNA (0.1 to 10 ng for TRAAK, TREK-1, TREK-2, and mutants) in 50 nL H2O was injected into Xenopus laevis oocytes extracted from anesthetized frogs. Currents were recorded at 25 °C from inside-out patches excised from oocytes 1 to 5 d after RNA injection. The pipette solution contained 15 mM KCl, 135 mM NaCl, 2 mM MgCl2, and 10 mM HEPES (pH = 7.4 with KOH) and the bath solution contained 150 mM KCl and 10 mM HEPES (pH = 7.1 with KOH). Borosilicate glass pipettes were pulled to 2–5 MΩ resistance.
Patches were evaluated with voltage-step protocols to confirm TRAAK expression and minimal non-specific leak based on reversal potential. Currents were recorded using an Axopatch 200B amplifier (Molecular Devices) at a bandwidth of 1 kHz and digitized with an Digidata 1550B (Molecular Devices) at 100–500 kHz using pClamp10.7 software. Pressure was applied with a second-generation high-speed pressure clamp device (HSPC-2-SB, ALA Scientific Instruments). Aggregated data were from patches from n ≥ 2 different cells on different days. No relevant differences were observed between patches from different cells. In an effort to minimize variability associated with differences in resting membrane tension, we targeted patches with low basal curvature and low resting channel activity and ensured measured pressure difference across the patch was as close to zero as possible at rest to prevent mechanical activation of channels. Data were analyzed using Clampfit 10.7, Excel, and Graphpad Prism software. For voltage families, the data were decimated 100x and plotted in Prism. Statistical analysis was conducted with Dunnett’s multiple comparisons test after an ordinary one-way ANOVA using Prism software.
To avoid cannabinoid absorption to plastic, cannabinoid solutions were made in glass vials and diluted by weight, perfusion was performed using glass tubing pulled from borosilicate glass Pasteur pipettes (Fisherbrand, Cat# 13–678-20C), and recordings were performed in glass chambers. Channel activity was continuously recorded during perfusion steps. Patches were exposed to each cannabinoid concentration until a stable current level was reached (0.5–2 minutes). CBD (Cayman Chemical cat#90080) was prepared as a 10mM stock solution in DMSO, CBN (Cayman Chemical cat#25495) was prepared as a 80mM stock solution in DMSO, CBDV (Phytolab Cat#85955) was prepared as a 10mM stock solution in DMSO, and CBDP (Cayman Chemical cat#33611) was purchased as a 2.9 mM stock solution in methanol. Cannabinoids were serially diluted in bath solution to achieve working concentrations of 50 μM to 10 nM. Bath volume in the recording chamber was minimized by suction and drug-containing solutions were delivered three times to ensure establishment of desired concentration in the recording chamber. Cannabinoids were applied from low to high concentration. The recording chamber and perfusion system were washed extensively with methanol after every trial.
The effects of cannabinoids on channel activity were quantified by the reduction in channel current evoked at 0 mV during a gap-free recording or during 200 ms long voltage families with steps ranging from −100 to +100 mV. Currents were normalized to those prior to cannabinoid application to facilitate comparisons across different patches and cells. […]

Homo sapiens TREK-1 = target: T2, Homo sapiens TREK-1 (Homo sapiens, UniProt O95069); experiment: Excised inside-out patch recording of TREK-1 from Xenopus oocytes; type: biochemical
T2 construct: TREK-1 amino acids 1–426; expressed in transfected cells; host or cells: Xenopus laevis oocytes, cRNA injection
T2 sequence (O95069 1-426): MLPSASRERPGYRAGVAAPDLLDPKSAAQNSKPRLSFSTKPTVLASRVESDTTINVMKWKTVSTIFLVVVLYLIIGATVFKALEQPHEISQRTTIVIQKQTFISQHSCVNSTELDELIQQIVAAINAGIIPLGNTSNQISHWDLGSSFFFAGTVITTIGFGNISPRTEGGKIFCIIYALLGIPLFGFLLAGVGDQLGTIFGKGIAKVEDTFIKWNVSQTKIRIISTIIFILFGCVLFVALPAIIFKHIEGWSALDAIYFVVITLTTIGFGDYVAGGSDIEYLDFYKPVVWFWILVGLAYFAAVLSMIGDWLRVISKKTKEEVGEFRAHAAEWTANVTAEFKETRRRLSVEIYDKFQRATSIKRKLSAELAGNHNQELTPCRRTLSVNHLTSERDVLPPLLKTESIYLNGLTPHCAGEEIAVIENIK
Description: as §1, with “The pipette solution contained 15 mM KCl, 135 mM NaCl, 2 mM MgCl2, and 10 mM HEPES (pH = 7.4 with KOH) and the bath solution contained 150 mM KCl and 10 mM HEPES (pH = 7.1 with KOH). Borosilicate glass pipettes were pulled to 2–5 MΩ resistance.” left out
Patches were evaluated with voltage-step protocols to confirm TRAAK expression and minimal non-specific leak based on reversal potential. Currents were recorded using an Axopatch 200B amplifier (Molecular Devices) at a bandwidth of 1 kHz and digitized with an Digidata 1550B (Molecular Devices) at 100–500 kHz using pClamp10.7 software. […] In an effort to minimize variability associated with differences in resting membrane tension, we targeted patches with low basal curvature and low resting channel activity and ensured measured pressure difference across the patch was as close to zero as possible at rest to prevent mechanical activation of channels. Data were analyzed using Clampfit 10.7, Excel, and Graphpad Prism software. […]
To avoid cannabinoid absorption to plastic, cannabinoid solutions were made in glass vials and diluted by weight, perfusion was performed using glass tubing pulled from borosilicate glass Pasteur pipettes (Fisherbrand, Cat# 13–678-20C), and recordings were performed in glass chambers. Channel activity was continuously recorded during perfusion steps. […]

For `C=C(C)[C@@H]1CCC(C)=C[C@H]1c1c(O)cc(CCCCC)cc1O` [CBD, Cannabidiol], the EC50 (TRPA1) is given as 110 nM, the IC50 (Homo sapiens TRAAK) is given as roughly 145 nM and the inhibition at 1 µM (Homo sapiens TRAAK; after mβCD treatment (high membrane tension)) is given as 43 ± 13%. The inhibition at 1 µM (Homo sapiens TRAAK; prior to mβCD treatment) was 91 ± 3%, the “effect on mechanical activation of TRAAK by negative pressure steps” value (Homo sapiens TRAAK; 0.5, 1 and 10 μM CBD) was “more negative pressure was required to activate TRAAK to the same degree” and the Hill-coefficient (Homo sapiens TRAAK; TRAAK dose-response) was 1.3. For the same compound, the “fold higher affinity than RU-TRAAK-1 and −2” value (Homo sapiens TRAAK; TRAAK inhibitors) was 3–5 fold, the “concentration at which effects are evident” value (Homo sapiens TRAAK; TRAAK, excised patches) was 1 to 10 nM and the “concentration of full inhibition” value (Homo sapiens TRAAK; TRAAK, excised patches) was ~ 1 μM. The “fold higher concentration required for similar inhibition after mβCD treatment” value (Homo sapiens TRAAK; after vs prior to mβCD treatment) was “Approximately 10 fold”, the “fold higher affinity than ruthenium red and TKDC” value (Homo sapiens TRAAK; nonspecific TRAAK inhibitors) was “greater than 10 fold” and the IC50 (Homo sapiens TREK-1) was 1500 nM. For the same compound, the Hill-coefficient (Homo sapiens TREK-1; TREK-1 dose-response) was 1.5 and the “fold less sensitive than TRAAK” value (Homo sapiens TREK-1; TREK-1 vs TRAAK) was ~ 10 fold.
